Data from patent US5047397A, “Linear analogs of atrial natriuretic peptides” (California Biotechnology Inc., priority 1988, dated 1991).
*1 amine or outer side, *2 acyl side, *3 side chain or, on linkers, in order; H or OH if unused. Where a SMILES comes first, the peptide text is derived from it. Bridges are numbered along the chain shown (N, C = ends). Where no end group is shown, it is not given here. [ ]: non-standard residue; d: D form. The star is where a group is joined. X2 = N=C(N)NCCC[C@@H](C(=O)[*:2])N(CCc1ccc(N[*:3])cc1)[*:1]; Acetyl(2-naphthyloxy) = O=C(COc1ccc2ccccc2c1)*; NH(2S-methylbutyl) = CC[C@H](C)CN*; X1 = O=C(Cc1ccc(N[*:1])cc1)[*:2]; Orn = NCCC[C@H](N)C(=O)O; X6 = O=C(C(Br)c1ccccc1)*; X9 = O=C(C(Cl)c1ccccc1)*; BrAc = O=C(CBr)*

Key:
[1] = target: T1, specific ANP receptor sites on BASM or BAE cells (Bos taurus, UniProt P10730); experiment: Competitive displacement receptor binding of (125I)-rANP(126-150) on cultured cells; parameters: species or system bovine; conditions: for prevention of (125I)-rANP(126-150) binding to BASM cell-associated receptors (FIG. 2): increasing concentrations of unlabeled peptide, BASM cells
T1 construct: specific receptor sites on BASM or BAE cells; endogenous in cells; host or cells: cultured BASM and BAE cells
T1 sequence (P10730 42-537): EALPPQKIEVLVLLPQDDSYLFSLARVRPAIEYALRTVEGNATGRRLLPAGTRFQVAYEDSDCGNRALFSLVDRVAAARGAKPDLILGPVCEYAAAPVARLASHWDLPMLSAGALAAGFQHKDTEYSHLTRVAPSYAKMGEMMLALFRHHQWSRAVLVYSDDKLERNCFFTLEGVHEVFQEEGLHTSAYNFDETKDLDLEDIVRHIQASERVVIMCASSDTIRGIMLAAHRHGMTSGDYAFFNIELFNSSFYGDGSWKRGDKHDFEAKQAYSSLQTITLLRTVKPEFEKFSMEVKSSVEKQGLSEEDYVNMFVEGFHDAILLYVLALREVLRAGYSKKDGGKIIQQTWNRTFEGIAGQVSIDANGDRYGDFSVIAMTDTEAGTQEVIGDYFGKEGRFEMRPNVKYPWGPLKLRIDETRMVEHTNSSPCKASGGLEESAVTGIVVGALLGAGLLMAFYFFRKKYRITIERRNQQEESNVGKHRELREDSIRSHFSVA
From the text: Analogous "competitive displacement" receptor binding assays are considered commonplace in the art for examining specific ligand-receptor interactions.
Assuming these ANP analogs act at one or more ANP receptor sites, then increased receptor affinity should reflect increased biological potency.

anesthetized rats = experiment: Diuresis in anesthetized rats; assay type: in vivo, rat; conditions: for urine flow rate (urine volume), diuretic response: versus baseline, FIG. 3
Procedure: In one set of examples, cannulae were placed in the left and right ureters and femoral vein of anesthetized rats and urine was collected from the ureters. Analog peptides were administered via the femoral vein. Prior to infusing the analog peptides, saline was infused for 30 minutes, urine was collected for 6 five-minute baseline periods and urine volume was determined gravimetrically. Following these baseline collection periods, various analog peptides were infused for 30 or 60 minutes and urine volume was measured in five-minute periods during infusion and for 60 minutes following infusion (at which time rats were returned to saline). Data was examined by averaging urine flow rates for six five-minute baseline control periods immediately preceding infusion, and comparing values during and after administration of peptides with the "baseline" control values. Responses to peptides are thus evaluated and plotted as the percent of baseline control responses. Specific examples are shown in FIGS. 3A-H. The error bars at the beginning of the graphs represent baseline values +standard deviations. Responses to peptides that are substantially above baseline ±SD can thus be interpreted as being statistically significant increases.

[2] = concentration of unlabeled peptide displacing 50% of maximal binding of 0.5 nM (125I)-rANP(126-150), BASM or BAE cells

CC[C@H](C)[C@@H]1NC(=O)[C@H](CCCNC(=N)N)NC(=O)[C@H](CC(=O)O)NC(=O)[C@H]([C@@H](C)CC)NC(=O)[C@H](CCCNC(=N)N)NC(=O)[C@@H](NC(=O)[C@H](CO)NC(=O)[C@H](CO)NC(=O)[C@@H](N)CCCNC(=N)N)CSSC[C@@H](C(=O)N[C@@H](CC(N)=O)C(=O)N[C@@H](CO)C(=O)N[C@@H](Cc2ccccc2)C(=O)N[C@@H](CCCNC(=N)N)C(=O)N[C@@H](Cc2ccc(O)cc2)C(=O)O)NC(=O)CNC(=O)[C@H](CC(C)C)NC(=O)CNC(=O)[C@H](CO)NC(=O)[C@H](CCC(N)=O)NC(=O)[C@H](C)NC(=O)CNC1=O [AP25, R--S--S--C--R--I--D--R--I--G--A--Q--S--G--L--G--C--N--S--F--R--Y] (H-RSSCRIDRIGAQSGLGCNSFRY-OH; disulfide 4-17)
Ki(app) [1, 2]: 0.00862 µM
prevention of (125I)-rANP(126-150) binding to BASM cell-associated receptors (FIG. 2) [1]: effectively prevent
urine flow rate (urine volume), diuretic response (anesthetized rats; infused at 5 mcg/min via femoral vein): significantly increased

CC[C@H](C)[C@@H]1NC(=O)[C@H](CCCNC(=N)N)NC(=O)[C@H](CC(=O)O)NC(=O)[C@H]([C@@H](C)CC)NC(=O)[C@H](CCCNC(=N)N)NC(=O)CNC(=O)CNC(=O)[C@H](Cc2ccccc2)NC(=O)[C@@H](N)CSSC[C@@H](C(N)=O)NC(=O)[C@H](C)NC(=O)CNC1=O [AP37, C-F-G-G-R-I-D-R-I-G-A-C-NH2] (H-CFGGRIDRIGAC-NH2; disulfide 1-12)
Ki ([1]; Table 2A, unit not given, in nM): 13.40
prevention of (125I)-rANP(126-150) binding to BASM cell-associated receptors (FIG. 2) [1]: effectively prevent
urine flow rate (urine volume), diuretic response (anesthetized rats; infused at 10 mcg/min via femoral vein): significantly increased

CC[C@H](C)[C@@H]1NC(=O)[C@H](CCCNC(=N)N)NC(=O)[C@H](CC(=O)O)NC(=O)[C@H]([C@@H](C)CC)NC(=O)[C@@H](NC(=O)[C@H](CO)NC(=O)[C@H](CO)NC(=O)[C@@H](N)CCCNC(=N)N)CSSC[C@@H](C(=O)N[C@@H](CC(N)=O)C(=O)N[C@@H](CO)C(=O)N[C@@H](Cc2ccccc2)C(=O)N[C@@H](CCCNC(=N)N)C(=O)N[C@@H](Cc2ccc(O)cc2)C(=O)O)NC(=O)CNC(=O)[C@H](CC(C)C)NC(=O)CNC(=O)[C@H](CO)NC(=O)[C@H](CCC(N)=O)NC(=O)[C@H](C)NC(=O)CNC1=O [AP54, R--S--S--C--I--D--R--I--G--A--Q--S--G--L--G--C--N--S--F--R--Y] (H-RSSCIDRIGAQSGLGCNSFRY-OH; disulfide 4-16)
receptor binding / activity as judged by Ki, in words [1]: does not bind to the receptor
Ki(app) [1, 2]: > 0.2 µM
in vivo diuretic/natriuretic activity in rats, in words (anesthetized rats; dose not stated): appears inactive in vivo

CC[C@H](C)CNC(=O)[C@H](CCCNC(=N)N)NC(=O)[C@H](CC(=O)O)NC(=O)[C@@H](NC(=O)[C@H](CCCNC(=N)N)NC(=O)Cc1ccc(NC(=O)COc2ccc3ccccc3c2)cc1)[C@@H](C)CC [AP813] ({Acetyl(2-naphthyloxy)}-[X1]RIDR-{NH(2S-methylbutyl)})
Ki(app) [1, 2]: 0.056 µM

CC[C@H](C)CNC(=O)[C@H](CCCNC(=N)N)NC(=O)[C@H](CC(=O)O)NC(=O)[C@@H](NC[C@H](CCCCN)NC(=O)Cc1ccc(NC(=O)c2ccc3ccccc3c2)cc1)[C@@H](C)CC [AP814]
Ki(app) [1, 2]: 0.033 µM

CC[C@H](C)[C@H](NC(=O)[C@H](CCCNC(=N)N)NC(=O)[C@H](CC(=O)O)NC(=O)[C@@H](NC(=O)[C@H](CCCN)NC(=O)Cc1ccc(NC(=O)COc2ccc3ccccc3c2)cc1)[C@@H](C)CC)C(N)=O [AP815] ({Acetyl(2-naphthyloxy)}-[X1][Orn]IDRI-NH2)
Ki(app) [1, 2]: 0.01 µM

CC[C@H](C)[C@H](NC(=O)[C@H](CCCNC(=N)N)NC(=O)[C@H](CC(=O)O)NC(=O)[C@@H](NC(=O)[C@H](CCCNC(=N)N)NCCc1ccc(NC(=O)COc2ccc3ccccc3c2)cc1)[C@@H](C)CC)C(N)=O [AP816] (H-[X2](Acetyl(2-naphthyloxy))IDRI-NH2)
Ki(app) [1, 2]: 0.0174 µM

CC[C@H](C)[C@H](NC(=O)[C@H](CCCNC(=N)N)NC(=O)[C@H](CC(=O)O)NC(=O)[C@@H](NC(=O)[C@H](CCCNC(=N)N)NC(=O)Cc1ccc(NC(=O)C(Cl)c2ccccc2)cc1)[C@@H](C)CC)C(N)=O (stereo partly shown) [AP817] (X9-[X1]RIDRI-NH2)
Ki(app) [1, 2]: 0.0211 µM

CC[C@H](C)[C@H](NC(=O)[C@H](CCCNC(=N)N)NC(=O)[C@H](CC(=O)O)NC(=O)[C@@H](NC(=O)[C@H](CCCNC(=N)N)NC(=O)Cc1ccc(NC(=O)C(Br)c2ccccc2)cc1)[C@@H](C)CC)C(N)=O (stereo partly shown) [AP818] (X6-[X1]RIDRI-NH2)
Ki(app) [1, 2]: 0.0205 µM

CC[C@H](C)[C@H](NC(=O)[C@H](CCCNC(=N)N)NC(=O)[C@H](CC(=O)O)NC(=O)[C@@H](NC(=O)[C@H](CCCNC(=N)N)NC(=O)Cc1ccc(NC(=O)[C@H](Cc2ccccc2)NC(=O)CBr)cc1)[C@@H](C)CC)C(N)=O [AP819] (BrAc-F[X1]RIDRI-NH2)
Ki(app) [1, 2]: 0.0038 µM

CC[C@H](C)[C@H](NC(=O)[C@H](Cc1ccc(O)cc1)NC(=O)[C@@H](NC(=O)[C@H](CCCNC(=N)N)NC(=O)[C@@H](N)CC(=O)O)C(C)C)C(=O)N[C@@H](Cc1c[nH]cn1)C(=O)N1CCC[C@H]1C(=O)N[C@@H](Cc1ccccc1)C(=O)O [angiotensin II, reference compound]
Ki(app) ([1]; specificity table, unrelated peptide hormones, unit inferred): > 0.5 µM

AFGGRIDRI-NH2 [AP103, A--F--G--G--R--I--D--R--I--NH2]
Ki(app) [1, 2]: 0.01242 µM

AFGGRIDRIG-NH2 [AP102, A--F--G--G--R--I--D--R--I--G--NH2]
Ki(app) [1, 2]: 0.01404 µM

AFGGRIDRIGY-NH2 [AP176, A--F--G--G--R--I--D--R--I--G--Y--NH2]
Ki(app) [1, 2]: 0.00665 µM

FGGRIDRI-NH2 [AP119, F--G--G--R--I--D--R--I--NH2]
Ki(app) [1, 2]: 0.0089 µM

FGGRIDRIGA-NH2 [AP126, F--G--G--R--I--D--R--I--G--A--NH2]
Ki(app) [1, 2]: 0.00216 µM

FGGRIDRIGAA-NH2 [AP104, F--G--G--R--I--D--R--I--G--A--A--NH2]
Ki(app) [1, 2]: 0.0025 µM

GGRIDRIGAA-NH2 [AP105, G--G--R--I--D--R--I--G--A--A--NH2]
receptor binding / activity as judged by Ki, in words [1]: do not
Ki(app) [1, 2]: > 0.2 µM

RIDRIG-NH2 [AP125, R--I--D--R--I--G--NH2]
receptor binding / activity as judged by Ki, in words [1]: do not
Ki(app) [1, 2]: > 0.2 µM

YAFGGRIDRIGA-NH2 [AP175, Y--A--F--G--G--R--I--D--R--I--G--A--NH2]
Ki(app) [1, 2]: 0.00594 µM
